Measurements as given in ChEMBL document CHEMBL6109139, “Rational Design of the First Dual Agonist at Trace Amine-Associated Receptor 1 and 5-HT2C Receptors Based on Binding Pocket Similarity for the Treatment of Schizophrenia and Alzheimer's Disease-Related Psychosis” (J Med Chem, 2025).

Key:
[1] = biological target: 5-hydroxytryptamine receptor 7 (Homo sapiens, UniProt P34969); experiment: Agonist activity at recombinant human 5-HT7 expressed in HEK293 cells by FLIPR calcium assay; format: functional, cell-based
[2] = biological target: Histamine H2 receptor (Homo sapiens) (UniProt P25021); experiment: Binding affinity to H2 receptor (unknown origin) at 10 uM by radioligand binding assay relative to control
[3] = Toxicity in female Beagle dog assessed as change in hematology at 0.75 to 2.5 mg/kg, IG administered once daily for 4 weeks and measured after 4 weeks; format: organism-based, Canis lupus familiaris; conditions: in vivo, po, 1344 h, dose 0.75-2.5 mg/kg, time 8 weeks
[4] = Toxicity in female Beagle dog assessed as minimal decrease activity at 2.5 mg/kg, IG administered once daily for 4 weeks; format: organism-based, Canis lupus familiaris; conditions: in vivo, po, 672 h
[5] = Toxicity in female Sprague-Dawley rat assessed as suppression of body weight gain at 7.5 mg/kg, po administered once daily for 4 weeks and measured weekly twice; format: organism-based; conditions: in vivo, 672 h
[6] = Cardiotoxicity in conscious cynomolgus monkey assessed as change in systolic pressure at 3.125 to 12.5 mg/kg, IG measured within 25 hrs; format: toxicity, organism-based, Macaca fascicularis; conditions: in vivo, po, dose 3.125-12.5 mg/kg
[7] = biological target: 5-hydroxytryptamine receptor 1A (Homo sapiens) (UniProt P08908); experiment: Agonist activity at human 5-HT1A expressed in CHO cells coexpressing Galpha15 by measuring maximum efficacy at 2 uM by FLIPR calcium assay relative to control; format: functional, cell-based; conditions: filed as agonist
[8] = Toxicity in female Sprague-Dawley rat assessed as minimal corneal neovascularization at 7.5 mg/kg, po administered once daily for 4 weeks; format: organism-based; conditions: in vivo, 672 h
[9] = Toxicity in female Beagle dog assessed as change in clinical chemistry at 0.75 to 2.5 mg/kg, IG administered once daily for 4 weeks and measured after 4 weeks; format: organism-based, Canis lupus familiaris; conditions: in vivo, po, 1344 h, dose 0.75-2.5 mg/kg, time 8 weeks
[10] = Toxicity in female Sprague-Dawley rat assessed as suppression of food consumption at 7.5 mg/kg, po administered once daily for 4 weeks and measured after 4 weeks; format: organism-based; conditions: in vivo, 1344 h, time 8 weeks
[11] = Metabolic stability in rat liver microsomes assessed as intrinsic clearance at 1 uM incubated for 60 mins by LC-MS/MS analysis; format: ADME, Microsome; conditions: read-out: CLH
[12] = Toxicity in female Sprague-Dawley rat assessed as change in bone marrow smears at 2.5 to 7.5 mg/kg, po administered once daily for 4 weeks and measured after 4 weeks; format: organism-based; conditions: in vivo, 1344 h, dose 2.5-7.5 mg/kg, time 8 weeks
Nav1.5 = Nav1.5 (Homo sapiens, UniProt Q14524); experiment: Binding affinity to human Nav1.5 receptor at 10 uM by radioligand binding assay relative to control; conditions: read-out: Activity
Nav1.5, sequence (Q14524 whole entry): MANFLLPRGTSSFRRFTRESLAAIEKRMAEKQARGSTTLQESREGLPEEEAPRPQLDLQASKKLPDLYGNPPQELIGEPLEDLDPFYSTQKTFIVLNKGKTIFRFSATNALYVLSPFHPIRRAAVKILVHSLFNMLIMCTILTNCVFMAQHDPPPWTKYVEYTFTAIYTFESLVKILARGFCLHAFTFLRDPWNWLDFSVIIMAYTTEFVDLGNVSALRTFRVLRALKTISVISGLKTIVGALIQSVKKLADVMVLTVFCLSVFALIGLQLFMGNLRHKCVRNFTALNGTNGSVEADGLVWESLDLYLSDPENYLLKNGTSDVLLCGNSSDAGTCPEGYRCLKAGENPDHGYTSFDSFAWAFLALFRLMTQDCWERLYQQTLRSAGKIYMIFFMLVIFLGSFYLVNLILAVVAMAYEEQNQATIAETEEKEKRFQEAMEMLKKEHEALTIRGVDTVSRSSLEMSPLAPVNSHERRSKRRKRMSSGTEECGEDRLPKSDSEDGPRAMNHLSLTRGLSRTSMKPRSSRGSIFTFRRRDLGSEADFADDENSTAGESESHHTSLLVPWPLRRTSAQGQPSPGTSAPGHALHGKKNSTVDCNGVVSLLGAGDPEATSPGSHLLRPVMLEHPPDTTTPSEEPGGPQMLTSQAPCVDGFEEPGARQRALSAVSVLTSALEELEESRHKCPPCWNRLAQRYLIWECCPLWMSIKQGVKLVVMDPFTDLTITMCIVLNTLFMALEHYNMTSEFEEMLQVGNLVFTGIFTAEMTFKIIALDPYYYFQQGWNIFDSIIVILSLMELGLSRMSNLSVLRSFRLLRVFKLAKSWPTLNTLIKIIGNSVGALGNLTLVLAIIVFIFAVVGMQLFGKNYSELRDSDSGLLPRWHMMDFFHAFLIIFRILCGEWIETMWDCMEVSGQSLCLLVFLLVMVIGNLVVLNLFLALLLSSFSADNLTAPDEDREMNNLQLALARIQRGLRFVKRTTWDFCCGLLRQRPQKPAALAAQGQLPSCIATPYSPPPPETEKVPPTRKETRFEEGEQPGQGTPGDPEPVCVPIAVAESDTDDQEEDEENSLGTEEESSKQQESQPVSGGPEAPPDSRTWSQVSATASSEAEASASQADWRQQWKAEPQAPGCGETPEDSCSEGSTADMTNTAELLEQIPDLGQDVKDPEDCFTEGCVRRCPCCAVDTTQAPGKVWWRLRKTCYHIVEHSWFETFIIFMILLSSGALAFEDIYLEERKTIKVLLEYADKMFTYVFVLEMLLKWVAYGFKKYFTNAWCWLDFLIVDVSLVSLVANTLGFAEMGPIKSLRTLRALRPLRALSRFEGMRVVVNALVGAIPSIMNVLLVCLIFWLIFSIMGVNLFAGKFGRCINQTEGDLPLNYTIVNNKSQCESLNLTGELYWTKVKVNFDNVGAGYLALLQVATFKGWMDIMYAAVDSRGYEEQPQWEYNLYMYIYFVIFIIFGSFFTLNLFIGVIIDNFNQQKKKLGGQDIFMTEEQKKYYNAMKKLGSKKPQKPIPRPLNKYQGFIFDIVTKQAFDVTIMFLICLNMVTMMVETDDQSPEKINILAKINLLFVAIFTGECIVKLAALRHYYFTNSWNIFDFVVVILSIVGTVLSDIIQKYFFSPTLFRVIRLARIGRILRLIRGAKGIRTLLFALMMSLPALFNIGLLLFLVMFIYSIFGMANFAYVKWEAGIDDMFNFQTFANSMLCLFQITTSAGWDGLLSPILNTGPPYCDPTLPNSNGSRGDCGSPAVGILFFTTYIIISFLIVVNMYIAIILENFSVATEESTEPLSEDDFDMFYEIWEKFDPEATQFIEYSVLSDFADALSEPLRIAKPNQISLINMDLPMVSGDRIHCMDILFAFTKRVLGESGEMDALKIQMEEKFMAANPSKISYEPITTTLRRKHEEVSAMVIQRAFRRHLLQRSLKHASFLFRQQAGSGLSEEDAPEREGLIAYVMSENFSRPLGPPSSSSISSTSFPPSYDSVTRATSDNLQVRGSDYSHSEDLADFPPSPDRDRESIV

[13] = Mutagenicity in Salmonella typhimurium TA98 by Ames test; format: toxicity; conditions: salmonella enterica subsp. enterica serovar typhimurium
[14] = Mutagenicity in Salmonella typhimurium TA100 by Ames test; format: toxicity; conditions: salmonella enterica subsp. enterica serovar typhimurium
[15] = biological target: Trace amine-associated receptor 1 (Rattus norvegicus) (UniProt Q923Y9); experiment: Agonist activity at rat TAAR1 by measuring maximum efficacy relative to control; format: functional; conditions: filed as agonist
[16] = biological target: Prostaglandin G/H synthase 1 (Homo sapiens) (UniProt P23219); experiment: Binding affinity to COX1 (unknown origin) at 10 uM by radioligand binding assay relative to control
Prostaglandin G/H synthase 1 (Homo sapiens), sequence (P23219 whole entry): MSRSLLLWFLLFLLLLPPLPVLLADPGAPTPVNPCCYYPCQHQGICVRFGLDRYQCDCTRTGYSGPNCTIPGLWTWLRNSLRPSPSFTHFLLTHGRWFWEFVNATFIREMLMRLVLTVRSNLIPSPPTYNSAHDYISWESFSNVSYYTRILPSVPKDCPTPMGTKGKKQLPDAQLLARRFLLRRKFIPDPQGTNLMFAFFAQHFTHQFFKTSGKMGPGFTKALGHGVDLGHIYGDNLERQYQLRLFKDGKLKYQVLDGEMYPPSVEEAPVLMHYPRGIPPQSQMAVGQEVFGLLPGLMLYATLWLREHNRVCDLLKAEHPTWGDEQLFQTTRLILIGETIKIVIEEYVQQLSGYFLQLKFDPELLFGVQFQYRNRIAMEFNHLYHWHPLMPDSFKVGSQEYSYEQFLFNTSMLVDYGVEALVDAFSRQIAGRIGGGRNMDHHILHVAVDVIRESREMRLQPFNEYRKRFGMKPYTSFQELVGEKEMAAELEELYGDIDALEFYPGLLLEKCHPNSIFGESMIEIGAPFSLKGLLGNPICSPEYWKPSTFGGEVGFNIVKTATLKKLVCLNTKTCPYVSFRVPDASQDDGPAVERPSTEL

[17] = biological target: Sodium-dependent dopamine transporter (Homo sapiens) (UniProt Q01959); experiment: Binding affinity to DAT receptor (unknown origin) at 10 uM by radioligand binding assay relative to control
[18] = biological target: Androgen receptor (Homo sapiens) (UniProt P10275); experiment: Binding affinity to AR (unknown origin) at 10 uM by radioligand binding assay relative to control
[19] = AUClast in male mouse at 10 mg/kg, IG measured after 24 hrs; format: ADME, organism-based; conditions: in vivo, po
L-type calcium channel = L-type calcium channel (Homo sapiens, UniProt O60840+Q01668+Q13698+Q13936); experiment: Binding affinity to L-type calcium channel (unknown origin) at 10 uM by radioligand binding assay relative to control; format: protein assay; conditions: read-out: Activity
[20] = Toxicity in male Sprague-Dawley rat assessed as suppression of body weight gain at 7.5 mg/kg, po administered once daily for 4 weeks and measured weekly twice; format: organism-based; conditions: in vivo, 672 h
[21] = Toxicity in Sprague-Dawley rat assessed as good general health at 2.5 to 7.5 mg/kg, po administered once daily for 4 weeks and measured after 4 weeks; format: organism-based; conditions: in vivo, 1344 h, dose 2.5-7.5 mg/kg, time 8 weeks
[22] = Toxicity in female Sprague-Dawley rat assessed as suppression of body weight gain at 7.5 mg/kg, po administered once daily for 4 weeks and measured after 4 weeks; format: organism-based; conditions: in vivo, 1344 h, time 8 weeks
[23] = Toxicity in male Sprague-Dawley rat assessed as suppression of food consumption at 7.5 mg/kg, po administered once daily for 4 weeks and measured weekly twice; format: organism-based; conditions: in vivo, 672 h
[24] = biological target: Trace amine-associated receptor 1 (Mus musculus) (UniProt Q923Y8); experiment: Agonist activity at mouse TAAR1 by measuring maximum efficacy relative to control; format: functional; conditions: filed as agonist
Trace amine-associated receptor 1 (Mus musculus), sequence (Q923Y8 whole entry): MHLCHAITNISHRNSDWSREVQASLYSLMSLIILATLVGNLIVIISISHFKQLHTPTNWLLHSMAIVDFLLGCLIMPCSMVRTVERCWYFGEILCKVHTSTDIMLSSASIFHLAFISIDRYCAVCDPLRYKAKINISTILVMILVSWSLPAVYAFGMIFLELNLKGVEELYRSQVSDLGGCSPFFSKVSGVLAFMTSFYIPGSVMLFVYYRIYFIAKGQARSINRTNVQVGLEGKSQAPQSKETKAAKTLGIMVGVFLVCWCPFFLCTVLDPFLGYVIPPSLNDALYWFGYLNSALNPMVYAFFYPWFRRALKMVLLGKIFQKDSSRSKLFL

[25] = Toxicity in female Sprague-Dawley rat assessed as change in clinical chemistry at 2.5 to 7.5 mg/kg, po administered once daily for 4 weeks and measured after 4 weeks; format: organism-based; conditions: in vivo, 1344 h, dose 2.5-7.5 mg/kg, time 8 weeks
[26] = Plasma protein binding in rat assessed as unbound fraction by LC-MS/MS analysis; format: ADME, cell-free
[27] = biological target: Mu-type opioid receptor (Homo sapiens) (UniProt P35372); experiment: Binding affinity to op-mu receptor (unknown origin) at 10 uM by radioligand binding assay relative to control
Mu-type opioid receptor (Homo sapiens), sequence (P35372 whole entry): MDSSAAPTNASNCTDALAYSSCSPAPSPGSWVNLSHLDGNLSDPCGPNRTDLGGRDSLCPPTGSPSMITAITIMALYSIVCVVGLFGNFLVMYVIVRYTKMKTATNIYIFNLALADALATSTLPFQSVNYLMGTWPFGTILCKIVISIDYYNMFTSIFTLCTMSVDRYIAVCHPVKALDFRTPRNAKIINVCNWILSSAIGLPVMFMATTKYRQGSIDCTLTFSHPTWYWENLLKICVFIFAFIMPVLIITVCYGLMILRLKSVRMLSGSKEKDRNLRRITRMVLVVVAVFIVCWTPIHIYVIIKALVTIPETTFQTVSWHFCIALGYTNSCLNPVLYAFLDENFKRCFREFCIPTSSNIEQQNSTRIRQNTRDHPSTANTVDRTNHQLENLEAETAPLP

[28] = Toxicity in female Beagle dog assessed as change in organ ratios at 0.75 to 2.5 mg/kg, IG administered once daily for 4 weeks and measured after 4 weeks; format: organism-based, Canis lupus familiaris; conditions: in vivo, po, 1344 h, dose 0.75-2.5 mg/kg, time 8 weeks
[29] = Cardiotoxicity in conscious cynomolgus monkey assessed as change in mean arterial pressure at 3.125 to 12.5 mg/kg, IG measured within 25 hrs; format: toxicity, organism-based, Macaca fascicularis; conditions: in vivo, po, dose 3.125-12.5 mg/kg
[30] = biological target: 5-hydroxytryptamine receptor 2B (Homo sapiens) (UniProt P41595); experiment: Binding affinity to 5-HT2B (unknown origin) at 10 uM by radioligand binding assay relative to control
5-hydroxytryptamine receptor 2B (Homo sapiens), sequence (P41595 whole entry): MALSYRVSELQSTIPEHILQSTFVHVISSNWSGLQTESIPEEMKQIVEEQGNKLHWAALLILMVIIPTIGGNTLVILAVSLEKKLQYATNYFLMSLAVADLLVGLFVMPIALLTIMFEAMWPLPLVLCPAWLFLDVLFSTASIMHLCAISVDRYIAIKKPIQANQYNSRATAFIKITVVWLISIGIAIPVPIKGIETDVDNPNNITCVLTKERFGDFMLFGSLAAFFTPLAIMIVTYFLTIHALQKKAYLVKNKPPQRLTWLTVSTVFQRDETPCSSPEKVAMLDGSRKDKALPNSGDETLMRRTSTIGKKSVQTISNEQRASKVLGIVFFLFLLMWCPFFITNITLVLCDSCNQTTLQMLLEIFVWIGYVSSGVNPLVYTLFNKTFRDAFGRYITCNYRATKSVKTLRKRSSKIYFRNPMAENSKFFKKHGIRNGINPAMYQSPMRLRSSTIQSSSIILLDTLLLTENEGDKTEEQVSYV

[31] = biological target: Muscarinic acetylcholine receptor M1 (Homo sapiens) (UniProt P11229); experiment: Binding affinity to M1 receptor (unknown origin) at 10 uM by radioligand binding assay relative to control
Muscarinic acetylcholine receptor M1 (Homo sapiens), sequence (P11229 whole entry): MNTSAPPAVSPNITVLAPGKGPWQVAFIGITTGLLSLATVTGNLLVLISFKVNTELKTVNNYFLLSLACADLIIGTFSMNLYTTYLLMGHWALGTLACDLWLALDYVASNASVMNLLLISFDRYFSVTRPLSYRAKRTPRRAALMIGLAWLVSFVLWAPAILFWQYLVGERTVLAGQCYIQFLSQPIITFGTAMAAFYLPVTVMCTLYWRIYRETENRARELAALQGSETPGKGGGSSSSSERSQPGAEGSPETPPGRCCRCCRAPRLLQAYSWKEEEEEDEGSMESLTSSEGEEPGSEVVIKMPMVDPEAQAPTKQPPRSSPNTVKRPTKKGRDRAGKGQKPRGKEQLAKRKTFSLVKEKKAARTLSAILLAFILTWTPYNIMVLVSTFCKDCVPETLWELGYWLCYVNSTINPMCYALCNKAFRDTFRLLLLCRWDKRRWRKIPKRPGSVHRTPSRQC

[32] = biological target: Muscarinic acetylcholine receptor M3 (Homo sapiens) (UniProt P20309); experiment: Binding affinity to M3 receptor (unknown origin) at 10 uM by radioligand binding assay relative to control
[33] = Ratio of drug concentration in male Sprague-Dawley rat brain to plasma at 5 mg/kg, IG measured after 1 hrs by LC-MS/MS analysis; format: ADME, organism-based; conditions: brain and plasma, po, read-out: BPR
[34] = Cardiotoxicity in conscious cynomolgus monkey assessed as waveform abnormalities in leas-II ECG at 3.125 to 12.5 mg/kg, IG measured within 24 hrs by EcgAUTO analysis; format: toxicity, organism-based, Macaca fascicularis; conditions: in vivo, po, dose 3.125-12.5 mg/kg
MAO-A = MAO-A (Homo sapiens, UniProt P21397); experiment: Binding affinity to MAO-A (unknown origin) at 10 uM by radioligand binding assay relative to control; conditions: read-out: Activity
MAO-A, sequence (P21397 whole entry): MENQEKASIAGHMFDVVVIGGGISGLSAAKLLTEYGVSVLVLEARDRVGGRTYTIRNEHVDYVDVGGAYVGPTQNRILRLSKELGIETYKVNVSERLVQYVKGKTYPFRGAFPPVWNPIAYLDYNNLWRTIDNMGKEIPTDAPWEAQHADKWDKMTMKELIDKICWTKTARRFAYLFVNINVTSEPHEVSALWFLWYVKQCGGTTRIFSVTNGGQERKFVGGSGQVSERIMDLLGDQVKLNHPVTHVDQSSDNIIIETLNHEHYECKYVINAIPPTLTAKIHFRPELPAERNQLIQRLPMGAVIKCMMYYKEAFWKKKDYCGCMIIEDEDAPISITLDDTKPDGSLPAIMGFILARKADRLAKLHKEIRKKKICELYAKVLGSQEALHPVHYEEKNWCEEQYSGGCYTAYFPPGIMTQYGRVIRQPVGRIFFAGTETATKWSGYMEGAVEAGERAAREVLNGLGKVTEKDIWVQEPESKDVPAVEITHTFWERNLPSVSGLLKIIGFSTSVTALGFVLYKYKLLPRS

[35] = biological target: Voltage-gated inwardly rectifying potassium channel KCNH2 (Homo sapiens, UniProt Q12809); experiment: Inhibition of human ERG expressed in CHO cells by whole cell patch clamp technique; format: toxicity, cell-based

## c1cc2c(s1)[C@@H]1CNCCN1CC2
[1]
  EC50: 10.9 µM
[2]
  Activity: 1.39%
[3]
  Activity: Non-toxic
[4]
  Activity: Toxic
[5]
  Activity: Toxic
[6]
  Activity: Non-toxic
[7]
  Emax: 48.3%
[8]
  Activity: Toxic
[9]
  Activity: Non-toxic
[10]
  Activity: Non-toxic
[11]
  CLint scaled at 1 µM: < 0.81 L/h/kg
[12]
  Activity: Non-toxic
Nav1.5
  activity at 10 µM: 13.4%
[13]
  Activity: Non-toxic
[14]
  Activity: Non-toxic
[15]
  Emax: 99.5%
[16]
  Activity: 33.3%
[17]
  Activity: -6.53%
[18]
  Activity: -5.37%
[19]
  AUC(0-t) at 24 h: 21.6 µM·h
L-type calcium channel
  activity at 10 µM: -7.25%
[20]
  Activity: Toxic
[21]
  Activity: Non-toxic
[22]
  Activity: Toxic
[23]
  Activity: Toxic
[24]
  Emax: 100%
[25]
  Activity: Non-toxic
[26]
  fraction unbound: 0.759
[27]
  Activity: 18.2%
[28]
  Activity: Non-toxic
[29]
  Activity: Non-toxic
[30]
  Activity: 45.3%
[31]
  Activity: 26.5%
[32]
  Activity: 23.8%
[33]
  Kp at 1 h: 6.02
[34]
  Activity: Non-toxic
MAO-A
  activity at 10 µM: 5.33%
[35]
  IC50: > 30 µM
